# Tests used:
# RAR α [1] = target: T1, RAR α (Homo sapiens, UniProt P10276); assay: RAR α Kd; type: binding; settings: last item of cell EC50/(EFFICACY)/Kd
# T1 sequence (P10276 1-462): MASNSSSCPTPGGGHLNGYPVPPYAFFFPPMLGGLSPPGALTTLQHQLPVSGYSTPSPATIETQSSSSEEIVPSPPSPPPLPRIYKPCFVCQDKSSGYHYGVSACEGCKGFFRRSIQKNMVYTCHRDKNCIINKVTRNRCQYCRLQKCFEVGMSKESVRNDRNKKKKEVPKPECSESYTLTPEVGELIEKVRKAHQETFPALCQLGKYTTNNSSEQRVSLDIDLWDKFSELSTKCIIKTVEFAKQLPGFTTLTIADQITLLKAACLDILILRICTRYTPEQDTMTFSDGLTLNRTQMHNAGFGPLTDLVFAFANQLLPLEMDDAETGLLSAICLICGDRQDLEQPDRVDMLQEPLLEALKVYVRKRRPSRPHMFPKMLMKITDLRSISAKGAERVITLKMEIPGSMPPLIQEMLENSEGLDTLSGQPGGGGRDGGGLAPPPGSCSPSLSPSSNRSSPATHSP
# CYP26A (P450RAI-1) = target: T2, CYP26A (P450RAI-1) (Homo sapiens, UniProt O43174); assay: Cell-based inhibition of RA metabolism in CYP26A stably transfected HeLa cells; settings: stably transfected HeLa cells, [3H]-RA, 3 hours at 37° C.; read-out: P450RAI-1 Whole cell IC50
# T2 construct: expressed in transfected cells; host or cells: HeLa
# T2 sequence (O43174 1-497): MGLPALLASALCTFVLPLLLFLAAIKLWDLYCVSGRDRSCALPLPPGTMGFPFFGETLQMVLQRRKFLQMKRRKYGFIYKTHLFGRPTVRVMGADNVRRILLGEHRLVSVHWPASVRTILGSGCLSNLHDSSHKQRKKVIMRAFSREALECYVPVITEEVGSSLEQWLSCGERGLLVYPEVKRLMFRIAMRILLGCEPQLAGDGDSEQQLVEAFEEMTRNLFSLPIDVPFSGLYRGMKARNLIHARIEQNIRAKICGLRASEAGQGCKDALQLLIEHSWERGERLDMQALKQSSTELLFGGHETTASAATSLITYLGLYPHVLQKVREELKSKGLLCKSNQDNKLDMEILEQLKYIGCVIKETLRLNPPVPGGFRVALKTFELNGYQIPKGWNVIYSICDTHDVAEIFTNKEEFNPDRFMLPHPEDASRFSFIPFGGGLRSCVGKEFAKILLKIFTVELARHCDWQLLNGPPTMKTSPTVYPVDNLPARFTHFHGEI
# In short: (§1)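 Stably transfected HeLa cells (5×10^5/well) in MEM with 10% FBS and 0.05 μCi [3H]-RA, compounds at 10, 1 or 0.1 μM final, 3 h at 37° C. Retinoids extracted by modified Bligh-Dyer (methylene chloride); aqueous radioactivity counted; ID50 for 50% inhibition of RA metabolism derived from log-transformed data.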
# RAR α [2] = target: T1, RAR α; assay: RAR α EC50/(efficacy); type: cell-based; settings: for RAR α (EFFICACY): value in brackets of cell EC50/(EFFICACY)/Kd; for EC50: first item of cell EC50/(EFFICACY)/Kd
# RAR β [3] = target: T3, RAR β (Homo sapiens, UniProt P10826); assay: RAR β Kd; type: binding; settings: last item of cell EC50/(EFFICACY)/Kd
# T3 sequence (P10826 1-455): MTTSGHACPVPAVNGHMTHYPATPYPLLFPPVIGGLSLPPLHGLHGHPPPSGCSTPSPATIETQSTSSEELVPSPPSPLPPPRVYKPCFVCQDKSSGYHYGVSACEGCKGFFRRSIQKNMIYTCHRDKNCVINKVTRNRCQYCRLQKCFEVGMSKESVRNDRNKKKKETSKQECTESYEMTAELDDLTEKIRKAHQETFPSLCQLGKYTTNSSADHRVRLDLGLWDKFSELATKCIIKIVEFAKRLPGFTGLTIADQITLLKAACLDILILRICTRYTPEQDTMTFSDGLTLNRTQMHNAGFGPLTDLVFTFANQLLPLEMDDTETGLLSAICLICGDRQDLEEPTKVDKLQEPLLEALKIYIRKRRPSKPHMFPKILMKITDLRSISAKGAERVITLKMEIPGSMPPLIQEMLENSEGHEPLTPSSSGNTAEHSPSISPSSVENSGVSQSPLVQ
# CYP26B (P450RAI-2) = target: T4, CYP26B (P450RAI-2) (Homo sapiens, UniProt Q9NR63); assay: Cell-based inhibition of RA metabolism in CYP26B stably transfected HeLa cells; settings: stably transfected HeLa cells, [3H]-RA, 3 hours at 37° C.; read-out: P450RAI-2 Whole cell IC50
# T4 construct: expressed in transfected cells; host or cells: HeLa
# T4 sequence (Q9NR63 1-512): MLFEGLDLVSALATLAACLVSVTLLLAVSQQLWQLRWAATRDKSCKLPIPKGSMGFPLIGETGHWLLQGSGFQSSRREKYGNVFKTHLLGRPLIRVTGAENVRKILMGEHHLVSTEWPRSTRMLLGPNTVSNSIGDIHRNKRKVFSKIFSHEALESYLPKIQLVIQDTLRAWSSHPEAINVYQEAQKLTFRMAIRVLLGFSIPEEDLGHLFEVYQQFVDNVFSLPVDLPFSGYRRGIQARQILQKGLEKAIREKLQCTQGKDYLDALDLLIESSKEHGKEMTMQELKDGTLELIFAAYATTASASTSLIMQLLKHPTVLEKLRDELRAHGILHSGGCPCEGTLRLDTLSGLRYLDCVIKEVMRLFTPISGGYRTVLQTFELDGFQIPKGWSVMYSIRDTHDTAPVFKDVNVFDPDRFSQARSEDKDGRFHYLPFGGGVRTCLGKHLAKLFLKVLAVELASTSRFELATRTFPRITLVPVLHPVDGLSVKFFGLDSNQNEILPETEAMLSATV
# In short: as §1
# RAR β [4] = target: T3, RAR β; assay: RAR β EC50/(efficacy); type: cell-based; settings: for EC50: first item of cell EC50/(EFFICACY)/Kd; for RAR β (EFFICACY): value in brackets of cell EC50/(EFFICACY)/Kd
# RAR γ [5] = target: T5, RAR γ (Homo sapiens, UniProt P13631); assay: RAR γ EC50/(efficacy); type: cell-based; settings: for EC50: first item of cell EC50/(EFFICACY)/Kd; for RAR γ (EFFICACY): value in brackets of cell EC50/(EFFICACY)/Kd
# T5 sequence (P13631 1-454): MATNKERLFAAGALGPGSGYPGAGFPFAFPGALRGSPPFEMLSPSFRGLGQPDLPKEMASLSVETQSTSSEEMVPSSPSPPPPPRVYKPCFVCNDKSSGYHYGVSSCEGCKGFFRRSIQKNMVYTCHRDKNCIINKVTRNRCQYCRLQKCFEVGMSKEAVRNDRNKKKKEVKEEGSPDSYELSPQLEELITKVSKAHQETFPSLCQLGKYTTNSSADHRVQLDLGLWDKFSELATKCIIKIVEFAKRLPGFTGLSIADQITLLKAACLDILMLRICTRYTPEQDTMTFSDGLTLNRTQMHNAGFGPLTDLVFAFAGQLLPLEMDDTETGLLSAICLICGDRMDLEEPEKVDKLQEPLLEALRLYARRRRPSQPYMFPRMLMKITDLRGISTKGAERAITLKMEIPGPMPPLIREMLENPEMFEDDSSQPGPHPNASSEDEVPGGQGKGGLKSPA
# RAR γ [6] = target: T5, RAR γ; assay: RAR γ Kd; type: binding; settings: last item of cell EC50/(EFFICACY)/Kd
Structure (SMILES),Kd (RAR α [1]),IC50 (CYP26A (P450RAI-1)),RAR α (EFFICACY) (RAR α [2]),Kd (RAR β [3]),IC50 (CYP26B (P450RAI-2)),EC50 (RAR β [4]),RAR β (EFFICACY) (RAR β [4]),EC50 (RAR γ [5]),RAR γ (EFFICACY) (RAR γ [5]),Kd (RAR γ [6]),EC50 (RAR α [2])
"C#CCc1c(C)c(C#Cc2ccc(CC(=O)O)cc2)cc(C(C)(C)C)c1OC(C)C [Compound 47, [4-(5-tert-Butyl-4-isopropoxy-2-methyl-3-prop-2-ynyl-phenylethynyl)-phenyl]-acetic acid]",2240 nM,100 nM,10,4470 nM,8800 nM,38 nM,59,125 nM,66,1950 nM,–
"CCC1(CC)CC(C)(C)c2cc(C#Cc3ccc(C(C)(C)C(=O)O)cc3)cc(C(C)C)c2O1 [Compound 14, 2-[4-(2,2-Diethyl-8-isopropyl-4,4-dimethyl-chroman-6-ylethynyl)-phenyl]-2-methyl-propionic acid]",5170 nM,700 nM,–,7400 nM,> 10000 nM,–,10,–,25,> 10000 nM,–
"CC1(C)CC2(CC2)Oc2c(C3CC3)cc(NC(=O)Nc3ccc(C(=O)O)cc3)cc21 [Compound 5, 4-{3-[8-Cyclopropyl-3,3-dihydro-4,4-dimethylspiro(2H-1-benzopyran-2,2′-cyclopropane)-6-yl]-ureido}-benzoic acid]",> 10000 nM,> 10000 nM,–,4540 nM,450 nM,320 nM,55,–,15,> 10000 nM,–
"CC(C)(C)c1cccc(C#Cc2ccc(/C=C/C(=O)O)cc2)c1 [Compound 35, (E)-3-[4-(3-tert-Butyl-phenylethynyl)-phenyl]-acrylic acid]",1930 nM,> 10000 nM,–,2090 nM,500 nM,16 nM,80,126 nM,48,2890 nM,–
"CN(c1cccc(C#Cc2ccc(/C=C/C(=O)O)cc2)c1)C1CC1 [Compound 37, (E)-3-{4-[3-(Cyclopropyl-methyl-amino)-phenylethynyl]-phenyl}-acrylic acid]",> 10000 nM,> 10000 nM,10,7020 nM,500 nM,–,70,–,15,> 10000 nM,–
"C=Cc1cc(C#Cc2ccc(CC(=O)O)cc2)cc2c1C(N(C)C1CC1)CCC2(C)C (stereo not drawn) [Compound 23, {4-[5-(Cyclopropyl-methyl-amino)-8,8-dimethyl-4-vinyl-5,6,7,8-tetrahydro-naphthalen-2-ylethynyl]-phenyl}-acetic acid]",> 10000 nM,8 nM,–,> 10000 nM,500 nM,–,40,–,35,> 10000 nM,–
"CCOC(=O)C1=CCC(C)(C)c2cc(C#Cc3ccc(CC(=O)O)c(F)c3)ccc21 [Compound 60, 6-(4-Carboxymethyl-3-fluoro-phenylethynyl)-4,4-dimethyl-3,4-dihydro-naphthalene-1-carboxylic acid ethyl ester]",6320 nM,60 nM,–,3960 nM,2600 nM,–,60,–,15,8990 nM,–

# The next lines start with the values.
Kd (RAR α [1]),IC50 (CYP26A (P450RAI-1)),RAR α (EFFICACY) (RAR α [2]),Kd (RAR β [3]),IC50 (CYP26B (P450RAI-2)),EC50 (RAR β [4]),RAR β (EFFICACY) (RAR β [4]),EC50 (RAR γ [5]),RAR γ (EFFICACY) (RAR γ [5]),Kd (RAR γ [6]),EC50 (RAR α [2]),Structure (SMILES)
85 nM,700 nM,67,45 nM,> 10000 nM,10 nM,75,7 nM,65,215 nM,65 nM,"C=Cc1c(C)c(C#Cc2ccc(CC(=O)O)cc2)cc(C(C)(C)C)c1OC(C)C [Compound 46, [4-(5-tert-Butyl-4-isopropoxy-2-methyl-3-vinyl-phenylethynyl)-phenyl]-acetic acid]"
3080 nM,300 nM,~5,810 nM,> 10000 nM,–,35,–,~5,> 10000 nM,–,"CC(C)c1cc(C(=O)Oc2ccc(/C=C/C(=O)O)cc2)cc2c1OC(C)(C)CC2(C)C [Compound 16, 8-Isopropyl-2,2,4,4-tetramethyl-chroman-6-carboxylic acid 4-(2-carboxy-vinyl)-phenyl ester]"
> 10000 nM,4000 nM,10,> 10000 nM,> 10000 nM,–,–,–,–,> 10000 nM,–,"CC(C)OC(=O)c1ccc(C#Cc2ccc(CC(=O)O)cc2)cc1CN(C)C1CC1 [Compound 38, 4-(4-Carboxymethyl-phenylethynyl)-2-[(cyclopropyl-methyl-amino)-methyl]-benzoic acid isopropyl ester]"
> 10000 nM,1400 nM,–,> 10000 nM,> 10000 nM,–,35,–,30,> 10000 nM,–,"CCOC(=O)C1=CCC(C)(C)c2cc(C#Cc3ccc(CC(=O)O)cc3)c(C)cc21 [Compound 55, 6-(4-Carboxymethyl-phenylethynyl)-4,4,7-trimethyl-3,4-dihydro-naphthalene-1-carboxylic acid ethyl ester]"
9.9 nM,700 nM,52,76 nM,> 10000 nM,18 nM,55,31 nM,68,255 nM,118 nM,"C#Cc1c(C)c(C#Cc2ccc(CC(=O)O)cc2)cc(C(C)(C)C)c1OC(C)C [Compound 45, [4-(5-tert-Butyl-3-ethynyl-4-isopropoxy-2-methyl-phenylethynyl)-phenyl]-acetic acid]"

# From patent US7468391B2, “Methods for treating retinoid responsive disorders using selective inhibitors of CYP26A and CYP26B” (Allergan, Inc., priority 2003, dated 2008)
